Experimental data reported in ChEMBL document CHEMBL3120061, “Novel spiroketal pyrrolidine GSK2336805 potently inhibits key hepatitis C virus genotype 1b mutants: from lead to clinical compound” (J Med Chem, 2014).

Legend:
[1] = system: Hepatitis C virus; experiment: Antiviral activity against Hepatitis C virus genotype 1b in Huh-luc/neo-ET replicon cells assessed as log10 reduction of HCV RNA at 3 times EC90 after 20 days by RNA reduction assay; format: functional, Hepacivirus hominis
[2] = system: Hepatitis C virus; experiment: Antiviral activity against Hepatitis C virus genotype 1b in Huh-luc/neo-ET replicon cells after 48 hrs by replicon-based luciferase assay; format: functional, organism-based, Hepacivirus hominis
[3] = target: T1, Cytochrome P450 1A2 (Homo sapiens, UniProt P05177); experiment: Inhibition of CYP1A2 (unknown origin); format: ADME
T1 sequence (P05177 whole entry): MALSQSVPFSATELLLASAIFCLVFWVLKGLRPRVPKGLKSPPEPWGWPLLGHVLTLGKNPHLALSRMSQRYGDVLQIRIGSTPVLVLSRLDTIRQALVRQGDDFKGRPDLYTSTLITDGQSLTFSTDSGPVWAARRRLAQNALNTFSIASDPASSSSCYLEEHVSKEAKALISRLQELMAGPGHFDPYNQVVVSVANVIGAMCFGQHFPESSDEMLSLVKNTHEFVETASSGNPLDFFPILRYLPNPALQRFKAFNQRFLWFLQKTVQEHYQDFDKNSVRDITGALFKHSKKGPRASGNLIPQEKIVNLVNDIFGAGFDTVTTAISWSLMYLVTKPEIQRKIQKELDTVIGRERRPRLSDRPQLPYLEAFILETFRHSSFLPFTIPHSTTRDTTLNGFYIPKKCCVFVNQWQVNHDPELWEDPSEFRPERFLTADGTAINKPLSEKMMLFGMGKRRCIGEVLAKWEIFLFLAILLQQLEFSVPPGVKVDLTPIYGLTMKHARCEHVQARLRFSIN

[4] = Cytotoxicity against human HuhET cells infected with Hepatitis C virus up to 40 uM after 48 hrs by WST assay; format: cell-based
[5] = In vivo clearance in cynomolgus monkey relative to hepatic blood flow; format: ADME, organism-based, Macaca fascicularis, Liver; settings: read-out: CLH
[6] = Oral bioavailability in cynomolgus monkey; format: ADME, organism-based, Macaca fascicularis; settings: in vivo
[7] = system: Hepatitis C virus; experiment: Antiviral activity against Hepatitis C virus genotype 1b harboring NS5A L31V mutant gene in Huh-luc/neo-ET replicon cells after 48 hrs by transient replicon mutant-based luciferase assay; format: functional, organism-based, Hepacivirus hominis
[8] = target: Albumin (Homo sapiens, UniProt P02768); experiment: Binding affinity to human serum albumin; format: ADME; settings: isolated protein
Albumin, sequence (P02768 whole entry): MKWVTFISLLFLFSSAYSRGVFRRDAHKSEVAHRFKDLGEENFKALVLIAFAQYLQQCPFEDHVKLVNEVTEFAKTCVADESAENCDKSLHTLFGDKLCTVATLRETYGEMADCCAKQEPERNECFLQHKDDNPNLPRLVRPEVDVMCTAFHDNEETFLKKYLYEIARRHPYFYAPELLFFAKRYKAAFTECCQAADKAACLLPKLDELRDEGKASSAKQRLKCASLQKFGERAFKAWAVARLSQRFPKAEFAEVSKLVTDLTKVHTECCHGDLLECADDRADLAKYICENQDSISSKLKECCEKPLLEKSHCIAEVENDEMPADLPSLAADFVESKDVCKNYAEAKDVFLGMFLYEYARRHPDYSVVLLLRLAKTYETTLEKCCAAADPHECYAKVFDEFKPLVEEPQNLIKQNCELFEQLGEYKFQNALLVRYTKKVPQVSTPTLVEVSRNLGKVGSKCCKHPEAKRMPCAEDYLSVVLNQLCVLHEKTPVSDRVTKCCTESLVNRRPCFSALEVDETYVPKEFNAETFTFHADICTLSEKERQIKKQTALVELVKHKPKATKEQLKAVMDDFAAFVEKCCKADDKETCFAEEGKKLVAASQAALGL

[9] = In vivo clearance in CD rat relative to hepatic blood flow; format: ADME, organism-based, Liver; settings: read-out: CLH
[10] = Half life in cynomolgus monkey hepatocytes; format: ADME, cell-based, Macaca fascicularis, Hepatocyte
[11] = target: Cytochrome P450 2D6 (Homo sapiens, UniProt P10635); experiment: Inhibition of CYP2D6 (unknown origin); format: ADME
Cytochrome P450 2D6, sequence (P10635 whole entry): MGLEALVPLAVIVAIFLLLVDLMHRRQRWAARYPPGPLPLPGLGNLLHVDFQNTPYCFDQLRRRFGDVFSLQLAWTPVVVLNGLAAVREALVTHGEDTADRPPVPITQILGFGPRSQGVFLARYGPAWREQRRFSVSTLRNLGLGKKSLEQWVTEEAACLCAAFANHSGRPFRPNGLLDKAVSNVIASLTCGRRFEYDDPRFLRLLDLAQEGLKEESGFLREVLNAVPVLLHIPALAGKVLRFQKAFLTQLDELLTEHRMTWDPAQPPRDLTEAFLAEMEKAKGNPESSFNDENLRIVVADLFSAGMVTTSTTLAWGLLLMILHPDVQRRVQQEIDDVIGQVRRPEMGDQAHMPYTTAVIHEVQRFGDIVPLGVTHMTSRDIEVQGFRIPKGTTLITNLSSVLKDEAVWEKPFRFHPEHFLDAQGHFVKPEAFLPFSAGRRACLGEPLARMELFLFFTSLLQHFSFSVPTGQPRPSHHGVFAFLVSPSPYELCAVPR

[12] = system: Hepatitis C virus; experiment: Antiviral activity against Hepatitis C virus genotype 1 infected in patient assessed as decrease in log10 HCV RNA copies/ml at 1 mg administered as single dose; format: functional, Hepacivirus hominis
[13] = system: Hepatitis C virus; experiment: Antiviral activity against Hepatitis C virus genotype 1a in Huh-luc/neo-ET replicon cells after 48 hrs by replicon-based luciferase assay; format: functional, organism-based, Hepacivirus hominis; settings: subtype 1a
[14] = Half life in dog hepatocytes; format: ADME, cell-based, Canis lupus familiaris, Hepatocyte
[15] = target: Cytochrome P450 3A4 (Homo sapiens, UniProt P08684); experiment: Inhibition of CYP3A4 (unknown origin); format: ADME
Cytochrome P450 3A4, sequence (P08684 whole entry): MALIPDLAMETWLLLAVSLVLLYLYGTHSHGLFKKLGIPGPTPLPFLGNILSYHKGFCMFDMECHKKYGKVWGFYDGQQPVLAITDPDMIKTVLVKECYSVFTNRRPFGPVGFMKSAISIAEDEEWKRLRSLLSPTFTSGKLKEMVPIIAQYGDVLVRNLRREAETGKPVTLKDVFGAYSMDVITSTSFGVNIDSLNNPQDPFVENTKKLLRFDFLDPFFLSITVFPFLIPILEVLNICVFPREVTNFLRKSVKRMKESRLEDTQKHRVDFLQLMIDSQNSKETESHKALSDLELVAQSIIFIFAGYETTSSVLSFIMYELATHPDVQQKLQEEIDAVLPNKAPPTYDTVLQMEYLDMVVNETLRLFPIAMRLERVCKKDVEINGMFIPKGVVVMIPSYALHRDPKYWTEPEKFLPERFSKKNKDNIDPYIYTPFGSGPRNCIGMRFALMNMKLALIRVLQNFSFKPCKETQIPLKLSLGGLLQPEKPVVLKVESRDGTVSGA

[16] = target: Cytochrome P450 2C19 (Homo sapiens, UniProt P33261); experiment: Inhibition of CYP2C19 (unknown origin); format: ADME
Cytochrome P450 2C19, sequence (P33261 whole entry): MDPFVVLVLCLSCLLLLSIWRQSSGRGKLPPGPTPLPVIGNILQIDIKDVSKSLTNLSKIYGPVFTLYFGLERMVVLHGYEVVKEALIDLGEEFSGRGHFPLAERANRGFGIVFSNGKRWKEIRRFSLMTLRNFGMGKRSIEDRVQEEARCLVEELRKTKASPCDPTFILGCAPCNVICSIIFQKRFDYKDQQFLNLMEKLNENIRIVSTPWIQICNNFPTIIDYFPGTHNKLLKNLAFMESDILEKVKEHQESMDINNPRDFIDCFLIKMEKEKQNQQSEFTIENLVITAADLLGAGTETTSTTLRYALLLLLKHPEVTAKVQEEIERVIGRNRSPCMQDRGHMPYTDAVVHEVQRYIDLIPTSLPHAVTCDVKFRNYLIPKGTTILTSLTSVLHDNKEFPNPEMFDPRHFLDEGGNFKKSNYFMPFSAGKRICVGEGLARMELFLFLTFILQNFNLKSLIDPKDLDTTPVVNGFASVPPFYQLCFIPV

[17] = Oral bioavailability in beagle dog; format: ADME, organism-based, Canis lupus familiaris; settings: in vivo
[18] = Binding affinity to human alpha1 AGP; format: ADME; settings: isolated protein
[19] = system: Hepatitis C virus; experiment: Antiviral activity against Hepatitis C virus genotype 1 infected in patient assessed as decrease in log10 HCV RNA copies/ml at 120 mg administered as single dose; format: functional, Hepacivirus hominis
[20] = system: Hepatitis C virus; experiment: Antiviral activity against Hepatitis C virus genotype 1b harboring NS5A Y93H mutant gene in Huh-luc/neo-ET replicon cells after 48 hrs by transient replicon mutant-based luciferase assay; format: functional, organism-based, Hepacivirus hominis
[21] = Half life in human hepatocytes; format: ADME, cell-based, Hepatocyte
[22] = Oral bioavailability in CD rat; format: ADME, organism-based; settings: in vivo
[23] = system: Hepatitis C virus; experiment: Ratio of EC50 for Hepatitis C virus genotype 1b harboring NS5A Y93H mutant gene to EC50 for Hepatitis C virus genotype 1b harboring wild type NS5A in Huh-luc/neo-ET replicon cells by replicon-based luciferase assay; format: functional, Hepacivirus hominis
[24] = system: Hepatitis C virus; experiment: Ratio of EC50 for Hepatitis C virus genotype 1b harboring NS5A L31V mutant gene to EC50 for Hepatitis C virus genotype 1b harboring wild type NS5A in Huh-luc/neo-ET replicon cells by replicon-based luciferase assay; format: functional, Hepacivirus hominis
[25] = In vivo clearance in beagle dog relative to hepatic blood flow; format: ADME, organism-based, Canis lupus familiaris, Liver; settings: read-out: CLH
[26] = system: Hepatitis C virus; experiment: Antiviral activity against Hepatitis C virus genotype 1b harboring NS5A L28V mutant gene in Huh-luc/neo-ET replicon cells after 48 hrs by transient replicon mutant-based luciferase assay; format: functional, organism-based, Hepacivirus hominis
[27] = Half life in rat hepatocytes; format: ADME, cell-based, Hepatocyte
[28] = system: Hepatitis C virus; experiment: Antiviral activity against Hepatitis C virus genotype 1b in Huh-luc/neo-ET replicon cells assessed as log10 reduction of HCV RNA at 10 times EC90 after 20 days by RNA reduction assay; format: functional, Hepacivirus hominis
[29] = target: Cytochrome P450 2C9 (Homo sapiens, UniProt P11712); experiment: Inhibition of CYP2C9 (unknown origin); format: ADME
Cytochrome P450 2C9, sequence (P11712 whole entry): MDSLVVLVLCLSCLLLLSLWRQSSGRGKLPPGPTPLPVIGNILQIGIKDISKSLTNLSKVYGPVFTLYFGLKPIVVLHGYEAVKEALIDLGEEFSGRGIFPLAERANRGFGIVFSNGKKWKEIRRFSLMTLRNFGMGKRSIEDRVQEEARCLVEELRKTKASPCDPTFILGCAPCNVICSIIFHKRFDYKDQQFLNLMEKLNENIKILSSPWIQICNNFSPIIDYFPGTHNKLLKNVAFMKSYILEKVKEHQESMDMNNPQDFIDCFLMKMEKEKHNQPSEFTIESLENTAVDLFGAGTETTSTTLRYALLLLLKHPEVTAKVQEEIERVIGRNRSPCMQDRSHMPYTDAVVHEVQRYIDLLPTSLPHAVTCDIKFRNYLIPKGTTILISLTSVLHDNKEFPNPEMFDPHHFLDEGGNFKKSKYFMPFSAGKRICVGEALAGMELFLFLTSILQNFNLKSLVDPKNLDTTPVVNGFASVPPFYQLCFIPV

[30] = system: Hepatitis C virus; experiment: Antiviral activity against Hepatitis C virus genotype 1b in Huh-luc/neo-ET replicon cells assessed as log10 reduction of HCV RNA at 3 to 10 times EC90 after 5 days by RNA reduction assay; format: functional, Hepacivirus hominis

COC(=O)N[C@H](C(=O)N1CCC[C@H]1c1ncc(-c2ccc(-c3ccc(-c4cnc([C@@H]5CC6(CN5C(=O)[C@@H](NC(=O)OC)C(C)C)OCCO6)[nH]4)cc3)cc2)[nH]1)C(C)C
FC [1]: 3
EC50 [2]: 0.00794 nM
IC50 [3]: > 33000 nM
Activity [4]: Non-toxic
clearance [5]: 9 mL/min/kg
bioavailability [6]: 13%
EC50 [7]: 0.0251 nM
Activity [8]: 94%
clearance [9]: 60 mL/min/kg
half-life [10]: ≥ 6 h
IC50 [11]: > 33000 nM
FC [12]: 0.996
EC50 [13]: 0.0398 nM
half-life [14]: ≥ 6 h
IC50 [15]: > 33000 nM
IC50 [16]: > 33000 nM
bioavailability [17]: 51%
Activity [18]: 86%
FC [19]: 2.95
EC50 [20]: 0.0251 nM
half-life [21]: ≥ 6 h
bioavailability [22]: 13%
Ratio EC50 [23]: 3.2
Ratio EC50 [24]: <=5
clearance [25]: 8 mL/min/kg
EC50 [26]: 0.00316 nM
half-life [27]: 2.67 h
FC [28]: 4
IC50 [29]: > 33000 nM
FC [30]: 2
